Assay results as given in patent publication US11969425B2, “Inhibitor of indoleamine-2,3-dioxygenase (IDO)” (InventisBio LLC, priority 2016, dated 2024).
Read-outs that look alike come from different tables or passages of the source.

What was measured:
[1] = system: kynurenine production in HeLa cells; experiment: Inhibition of kynurenine production in HeLa cells; assay type: cell-based, human; settings: Homo sapiens, HeLa, 48 h
Protocol: The effect of compounds described herein on the inhibition of kynurenine production in HeLa cells (derived from human cervical cancer) was determined. HeLa cells were seeded into a 96-well culture plate at a density of 5×10^3 per well in RPMI1640/phenol red free media (from GIBCO) with 2 mM L-glutamine and 10% fetal bovine serum (FBS, from GIBCO) and grown overnight in a 37° C. incubator with 5% CO2. Twenty-four hours later, human IFN-γ (from GIBCO) (final concentration 50 ng/mL) and test compound solutions (serially diluted to different wells) were added to each well with a final volume of 200 uL per well. Forty-eight hours after incubation with compounds, 140 uL supernatant was taken from each well and was transferred to a new 96-well plate. Ten microliters of 6.1 N trichloroacetic acid were added into each well, mixed and incubated at 50° C. for 30 minutes. The reaction mixture was then centrifuged for 10 minutes at 2500 rpm and 100 uL of the supernatant per well was transferred to another 96 well plate and mixed with 100 uL of 2% (w/v) p-dimethylaminobenzaldehyde in acetic acid. The yellow color derived from kynurenine was measured at 480 nm using a SPECTRAmax i3 reader. Each compound concentration was done in triplicates and compound IC50 value was calculated using nonlinear regression using Graphpad Prism 5.0.
The inhibitory activity of representative compounds described herein, compared with another IDO inhibitor, such as INCB-24360, Controls 1 and 2 are shown in Table 2.

[2] = system: pooled human hepatocytes; experiment: Human hepatocyte clearance study; assay type: in vitro ADME; settings: pooled human hepatocytes, 120 min
Protocol: (§1) The in vitro human hepatocyte clearance of compounds described here was studied using pooled human hepatocytes purchased from BioreclamationIVT (Westbury, NY, Cat #X008001, Lot #TQJ). The assay was conducted according to manufacture's instruction. Briefly, 10 mM stock solutions of test compounds and positive control (Verapamil) were prepared in 100% DMSO. Thawing media (50 mL) used in the study consists of: 31 mLWilliams E medium (GIBCO Cat #12551-032); 15 mL isotonic percoll (GE Healthcare Cat #17-0891-09); 500 uL 100XGlutaMax (GIBCO Cat #35050); 750 uL HEPES (GIBCO Cat #15630-080); 2.5 mL FBS (Corning Cat #35-076*CVR); 50 uL human insulin (GIBCO Cat #12585-014) and 5 uL dexamethasone (NICPBP). Incubation media is made of Williams E medium supplemented with 1xGlutaMax. Both thawing medium and incubation medium (serum-free) were placed in a 37° C. water bath for at least 15 minutes prior to use. Compound stock solutions were diluted to 100 μM by combining 198 μL of 50% acetonitrile/50% water and 2 μL of 10 mM stock solution. Verapamil was use as positive control in the assay. Vials of cryopreserved hepatocytes were removed from storage and thawed in a 37° C. water bath with gentle shaking. Contents of the vial were poured into the 50 mL thawing medium conical tube. Vials were centrifuged at 100 g for 10 minutes at room temperature. Thawing medium was aspirated and hepatocytes were re-suspended with serum-free incubation medium to yield ˜1.5×10^6 cells/mL. Hepatocyte viability and density were counted using a Trypan Blue exclusion, and then cells were diluted with serum-free incubation medium to a working cell density of 0.5×10^6 viable cells/mL. Then, a portion of the hepatocytes at 0.5×10^6 viable cells/mL was boiled for 5 minutes prior to adding to the plate as negative control to eliminate the enzymatic activity so that little or no substrate turnover should be observed. The boiled hepatocytes were used to prepare negative samples. Aliquots of 198 μL hepatocytes were dispensed into each well of a 96-well non-coated plate. The plate was placed in the incubator on an orbital shaker at 500 rpm for approximately 10 minutes. Aliquots of 2 μL of the 100 μM test compound or positive control were added into respective wells of the non-coated 96-well plate to start the reaction. This assay was performed in duplicate. The plate was incubated in the incubator on an orbital shaker at 500 rpm for the designated time points. Twenty-five microliter of contents were transferred and mixed with 6 volumes (150 μL) of cold acetonitrile with IS (200 nM imipramine, 200 nM labetalol and 200 nM diclofenac) to terminate the reaction at time points of 0, 15, 30, 60, 90 and 120 minutes. Samples were centrifuged at 3,220 g for 25 minutes and aliquots of 150 μL of the supernatants were used for LC-MS/MS analysis. For data analysis, all calculations were carried out using Microsoft Excel. Peak areas were determined from extracted ion chromatograms. The in vitro half-life (t1/2) of parent compound was determined by regression analysis of the percent parent disappearance vs. time curve. The in vitro half-life (in vitro t1/2) was determined from the slope value: in vitro t1/2=0.693/k. […] Scaling factors for in vivo intrinsic clearance prediction using human hepatocytes are listed as: liver weight (g liver/kg body weight): 25.7; hepatocyte concentration (10^6 cells/g liver): 99; scaling factor: 2544.3.

[3] = Human hepatocyte clearance study; assay type: in vitro ADME; settings: pooled cryopreserved human hepatocytes (suspension); for CLint scaled at 1 µM: human, scaled up from in vitro t1/2, scaling factor 2544.3, read-out: Human Scale-up Clint; for hepatocyte CLint at 1 µM / half-life at 1 µM: pooled human hepatocytes; for hepatocyte CLint at 1 µM: read-out: Human In vitro Clint (μL/min/10^6 cells); for half-life at 1 µM: read-out: Human In vitro T1/2
Protocol: as §1

[4] = HeLa cells, human IFN-γ 50 ng/mL, kynurenine read at 480 nm, read-out: IC50

| Compound | IC50 [1, 4] | further results |
| --- | --- | --- |
| CC(C)CN(CC(C)C)c1ccc(C2(C(=O)O)CCC2)cc1NC(=O)Nc1ccc(F)cc1F [Compound 16] | 1.5 nM | Human Hepatocyte Remaining Percentage @ 120 min [2]: 101; CLint scaled at 1 µM [3]: 1.8 mL/min/kg; hepatocyte CLint at 1 µM [3]: 0.7 µL/min/1e6 cells; half-life at 1 µM [3]: 31.4 h |
| CC(C)CN(CC(C)C)c1ccc(C2(C(=O)O)CCCC2)cc1Nc1ccccc1 [Compound 48] | 8.4 nM | Human Hepatocyte Remaining Percentage @ 120 min [2]: 105; CLint scaled at 1 µM [3]: 2 mL/min/kg; hepatocyte CLint at 1 µM [3]: 0.8 µL/min/1e6 cells; half-life at 1 µM [3]: 28.9 h |
| CCC(C(=O)O)c1ccc(N(CC(C)C)C2CCOCC2)c(Nc2ccc(F)cc2F)c1 (stereo not shown) [Compound 69] | 3.9 nM |  |
| CC(C)CN(c1ccc(C2(C(=O)O)CCC2)cc1Nc1cncnc1)C1CCOCC1 [Compound 74] | 1.9 nM |  |
| CC(C)CN(c1ccc(C2(C(=O)O)CCC2)cc1Nc1ccc(S(C)(=O)=O)cc1)C1CCOCC1 [Compound 77] | 3 nM |  |
| CC(C)CN(c1ccc(C2(C(=O)O)CCC2)cc1NC1CCCC1)C1CCOCC1 [Compound 78] | 13.9 nM |  |
| CC(C)CN(c1ccc(C2(C(=O)O)CCC2)cc1NCC1CC1)C1CCOCC1 [Compound 80] | 29 nM |  |
| CC(C)CN(CC(C)C)c1ncc(C2(C(=O)O)CCC2)cc1NC(=O)Nc1ccc(F)cc1F [Compound 83] | 5.4 nM |  |
| Cc1cc(NC(=O)Nc2cc(C3(C(=O)O)CCC3)cnc2N(CC(C)C)CC(C)C)on1 [Compound 85] | 19 nM |  |
| CC(C)CN(c1ccc(C2(C(=O)O)CCC2)cc1Nc1cnn(C)c1)C1CCOCC1 [Compound 87] | 6.5 nM |  |
| CC(C)CN(c1ccc(C2(C(=O)O)CCC2)cc1Nc1ccc(Cl)cc1F)C1CCOCC1 [Compound 88] | 1.7 nM |  |
| CC(C)CN(c1ccc(C2(C(=O)O)CCC2)cc1Nc1ccc(F)cc1F)C1CCOCC1 [Compound 89] | 6.3 nM |  |
| CC(C)CN(c1ncc(C2(C(=O)O)CCC2)cc1NC(=O)Nc1ccc(F)cc1F)C1CCOCC1 [Compound 90] | 33 nM |  |
| CCOc1ncc(Nc2cc(C3(C(=O)O)CCC3)ccc2N(CC(C)C)CC(C)C)cn1 [Compound 97] | 2.4 nM |  |
| CCOc1ncc(Nc2cc(C3(C(=O)O)CCC3)ccc2N(CC2CC2)C(C)C)cn1 [Compound 98] | 2.8 nM |  |
| CC(C)CN(c1ccc(CC(=O)O)cc1Nc1ccc(C#N)cc1)C1CCCCC1 [Compound 99] | 3.9 nM |  |
| CC(C)CN(c1ccc(C2(C(=O)O)CCC2)cc1Nc1cccc(Cl)c1)C1CCOCC1 [Compound 100] | 3.5 nM |  |
| CC(C)CN(c1ccc(C2(C(=O)O)CCC2)cc1Nc1cc(Cl)cc(Cl)c1)C1CCOCC1 [Compound 103] | 20 nM |  |
| CC(C)CN(c1ccc(CC(=O)O)cc1Nc1ccc(Cl)cc1)C1CCOCC1 [Compound 104] | 1.8 nM |  |
| CCOc1ncc(Nc2cc(CC(=O)O)ccc2N(CC(C)C)C2CCOCC2)cn1 [Compound 109] | > 316 nM |  |
| CCOc1ncc(Nc2cc(C(C)(C)C(=O)O)ccc2N(CC2CC2)C(C)C)cn1 [Compound 114] | 25 nM |  |
| CCOc1ncc(Nc2cc(C(C)(C)C(=O)O)ccc2N(CC(C)C)C2CCOCC2)cn1 [Compound 121] | 4.1 nM |  |
| CCOc1ncc(Nc2cc(C3(C(=O)O)CCC3)cnc2N(CC(C)C)C2CCOCC2)cn1 [Compound 122] | 2.3 nM |  |
| CCOc1ncc(Nc2cc(C3(C(=O)O)CCC3)cnc2N(CC)C2CCOCC2)cn1 [Compound 124] | 11.3 nM |  |
| CCOc1ncc(Nc2cc(C3(C(=O)O)CCC3)cnc2N2CCC(c3ccccc3)CC2)cn1 [Compound 126] | 7.5 nM |  |
| CCOc1ncc(Nc2cc(C3(C(=O)O)CCC3)cnc2N2C3CCC2CC(c2ccc(F)cc2)C3)cn1 (stereo not shown) [Compound 127] |  | IC50 [1]: 22 nM |
| CC(C)C1COCCN1c1ncc(C2(C(=O)O)CCC2)cc1Nc1ccc(Cl)cc1 (stereo not shown) [Compound 128] | 9.3 nM |  |
| Cc1cc(NC(=O)Nc2cc([C@H]3C[C@H]3C(=O)O)ccc2N(CC(C)C)CC(C)C)on1 [Control 2, (1R,2S)-2-(4-(diisobutylamino)-3-(3-(3-methylisoxazol-5-yl)ureido)phenyl)cyclopropanecarboxylic acid, reference compound] | 3 nM |  |

Further compounds by falling IC50 [1, 4], results first:

| IC50 [1, 4] | Compound | further results |
| --- | --- | --- |
| 1.1 nM | Cc1csc(Nc2cc(C3(C(=O)O)CCC3)ccc2N(CC(C)C)C2CCOCC2)n1 [Compound 76] |  |
| 0.6 nM | CC(C)CN(c1ccc(C2(C(=O)O)CCC2)cc1NC(=O)Nc1ccc(F)cc1F)C1CCOCC1 [Compound 25] | Human Hepatocyte Remaining Percentage @ 120 min [2]: 89; CLint scaled at 1 µM [3]: 3.9 mL/min/kg; hepatocyte CLint at 1 µM [3]: 1.5 µL/min/1e6 cells; half-life at 1 µM [3]: 15 h |
| 0.5 nM | CC(C)N(CC1CC1)c1ncc(C2(C(=O)O)CCC2)cc1Nc1ccc(C#N)cc1 [Compound 116] |  |
| 0.4 nM | CCC(C(=O)O)c1ccc(N(CC(C)C)C2CCOCC2)c(Nc2ccc(C#N)cc2)c1 (stereo not shown) [Compound 70A] |  |
| 0.4 nM | CCOc1ccc(Nc2cc(C3(C(=O)O)CCC3)ccc2N(CC(C)C)C2CCOCC2)cc1 [Compound 73] |  |
| 0.4 nM | CC(C)N(CC1CC1)c1ccc(C2(C(=O)O)CCC2)cc1Nc1ccc(Cl)cc1 [Compound 95] |  |
| 0.4 nM | CC(C)CN(CC(C)C)c1ccc(C2(C(=O)O)CCC2)cc1Nc1ccc(Cl)cc1 [Compound 96] |  |
| 0.4 nM | CC(C)N(CC1CC1)c1ccc(C2(C(=O)O)CCC2)cc1Nc1ccc(Cl)cn1 [Compound 113] |  |
| 0.3 nM | CCOc1ncc(Nc2cc(C3(C(=O)O)CCC3)ccc2N(CC(C)C)C2CCOCC2)cn1 [Compound 75] | Human Hepatocyte Remaining Percentage @ 120 min [2]: 88; CLint scaled at 1 µM [3]: 6.6 mL/min/kg; hepatocyte CLint at 1 µM [3]: 2.6 µL/min/1e6 cells; half-life at 1 µM [3]: 8.9 h |
| 0.3 nM | CC(C)CN(CC(C)C)c1ncc(C2(C(=O)O)CCC2)cc1Nc1ccc(C#N)cc1 [Compound 93] |  |
| 0.3 nM | CC(C)N(CC1CC1)c1ccc(C2(C(=O)O)CCC2)cc1Nc1ccc(C#N)cn1 [Compound 108] |  |
| 0.2 nM | CC(C)CN(c1ccc(C2(C(=O)O)CCC2)cc1Nc1ccc(C#N)cc1)C1CCOCC1 [Compound 72] |  |
| 0.2 nM | CC(C)CN(c1ncc(C2(C(=O)O)CCC2)cc1Nc1ccc(Cl)cc1)C1CCOCC1 [Compound 92] |  |
| 0.2 nM | CC(C)CN(c1ccc(C2(C(=O)O)CCC2)cc1Nc1ccc(C#N)cn1)C1CCCCC1 [Compound 94] |  |
| 0.2 nM | CC(C)CN(c1ccc(C2(C(=O)O)CCC2)cc1Nc1ccc(Cl)c(F)c1)C1CCOCC1 [Compound 101] |  |
| 0.2 nM | CC(C)CN(c1ccc(C2(C(=O)O)CCC2)cc1Nc1ccc(Cl)cn1)C1CCOCC1 [Compound 102] |  |
| 0.2 nM | CC(C)N(CC1CC1)c1ccc(C2(C(=O)O)CCC2)cc1Nc1ccc(C#N)cc1 [Compound 112] |  |
